{"source": "patent US10576102B2", "about": "“KOC1-derived peptide and vaccine including same” (ONCOTHERAPY SCIENCE, INC., priority 2014, dated 2020)", "key": {"[1]": {"system": "peptide-pulsed C1R-A33", "assay": "In vitro CTL induction, IFN-gamma ELISPOT assay (HLA-A*3303)", "assay_type": "cell-based, human", "settings": "CTLs induced with peptide-pulsed DCs from HLA-A*3303-positive volunteers; day 21; vs peptide-pulsed C1R-A33, compared with unpulsed control", "procedure": "(§1) C1R (C1R-A33) that stably expresses HLA-A*3303 was used as a stimulator cell. A cDNA encoding the open-reading frame of HLA-A*3303 was amplified by PCR and cloned into an expression vector. C1R cells were transfected with the expression vector, and then selected using G418 (Invitrogen) for two weeks. The G418-selected cells were seeded into wells containing G418-added culture medium in a 96-well plate, and further cultured for 30 days. The exogenous HLA-A*3303 expression in C1R cells was verified by flow cytometric analysis.\n(§2) Monocyte-derived dendritic cells (DCs) were used as the antigen-presenting cell to induce a cytotoxic T lymphocyte (CTL) response against peptides presented on human leukocyte antigens (HLAs). As described in the other sections, DCs were generated in vitro (Nakahara S et al., Cancer Res 2003, 63(14): 4112-8). Specifically, peripheral-blood mononuclear cells isolated from healthy volunteers (HLA-A*3303-positive) with the Ficoll-Paque plus solution (Pharmacia) were separated by attaching to plastic tissue culture dishes (Becton Dickinson) and concentrated as a monocyte fraction. The monocyte-concentrated population was cultured in the presence of 1000 IU/ml granulocyte macrophage colony-stimulating factor (R&D System) and 1000 IU/ml interleukin(IL)-4 (R&D System) in an AIM-V medium (Invitrogen) containing 2% heat-inactivated autologous serum (AS). After seven days of culturing, the cytokine-induced DCs were pulsed with 20 micro-g/ml each of the synthesized peptides in an AIM-V medium at 37 degrees C. for three hours in the presence of 3 micro-g/ml beta 2-microglobulin. The generated cells appeared to express on their cell surface DC-associated molecules such as CD80, CD83, CD86 and HLA class II (data not shown). Next, these peptide-pulsed DCs were inactivated by X-ray irradiation (20 Gy), and mixed in a 1:20 ratio with autologous CD8^+ T cells obtained by positive selection using the CD8 Positive Isolation Kit (Dynal). These culture products were seeded in a 48-well plate (Corning). Each well was made to contain 1.5×10^4 peptide-pulsed DCs, 3×10^5 CD8^+ T cells and 10 ng/ml IL-7 (R&D System) in 0.5 ml of the AIM-V/2% AS medium. Three days later, these culture products were added with a final concentration of 20 IU/ml IL-2 (CHIRON). On day 7 and day 14, T cells were further stimulated with peptide-pulsed autologous DCs. The DCs were prepared every time by the same method as above. On day 21, after the third peptide stimulation, CTLs were examined against the peptide-pulsed C1R-A33 cell by a human interferon (IFN)-gamma enzyme-linked immunospot (ELISPOT) assay (Tanaka H et al., Br J Cancer 2001, 84(1): 94-9; Umano Y et. al., Br J Cancer 2001, 84(8): 1052-7; Uchida N et al., Clin Cancer Res 2004, 10(24): 8577-86; Suda T et al., Cancer Sci 2006, 97(5): 411-9; Watanabe T et al., Cancer Sci 2005, 96(8): 498-506).\n(§3) Specifically, peptide-pulsed C1R-A33 (1×10^4 cells/well) was prepared as the stimulator cell. The induced CTLs, i.e., CTL lines and CTL clones, were used as the responder cell. The IFN-gamma ELISPOT assay and IFN-gamma ELISA were performed according to the manufacturer's manual."}, "[2]": {"system": "peptide-pulsed C1R-A33", "assay": "IFN-gamma ELISA of CTL lines and CTL clones (HLA-A*3303)", "assay_type": "cell-based, human", "settings": "for IFN-gamma production of CTL clones, ELISA: CTL clones by limiting dilution, peptide-pulsed C1R-A33; for IFN-gamma production of CTL lines, ELISA: target cells pulsed with the peptide vs not pulsed, C1R-A33", "procedure": "CTLs were propagated in culture using methods similar to those disclosed by Riddell et al. (Walter E A et al., N Engl J Med 1995, 333(16): 1038-44; Riddell S R et al., Nat Med 1996, 2(2): 216-23). The CTLs were co-cultured in a total of 25 ml AIM-V medium containing 5% AS (AIM-V/5% AS) and 40 ng/ml anti-CD3 antibody with two types of Mitomycin C-treated human B lymphoblastoid cell lines at 5×10^6 cells/flask. One day after beginning of the culturing, 120 IU/ml IL-2 was added to the culture. On days 5, 8 and 11, a fresh AIM-V/5% AS medium containing 30 IU/ml IL-2 was added to the culture (Tanaka H et al., Br J Cancer 2001, 84(1): 94-9; Umano Y et al., Br J Cancer 2001, 84(8): 1052-7; Uchida N et al., Clin Cancer Res 2004, 10(24): 8577-86; Suda T et al., Cancer Sci 2006, 97(5): 411-9; Watanabe T et al., Cancer Sci 2005, 96(8): 498-506).\nDilution of CTLs was carried out to make 0.3, 1 and 3 cells/well in 96 round-bottomed microtiter plates (Nalge Nunc International). The CTLs were co-cultured with two types of Mitomycin C-treated human B lymphoblastoid cell lines at 1×10^4 cells/well in a total of 150 micro-1/well AIM-V/5% AS medium with 30 ng/ml anti-CD3 antibody and 125 IU/ml IL-2. Ten days later, IL-2 was added to the medium at 50 micro-1/well to reach a final concentration of 125 IU/ml. On day 14, the CTL activity was tested, and the CTL clones were propagated using the same method as described above (Uchida N et al., Clin Cancer Res 2004, 10(24): 8577-86; Suda T et al., Cancer Sci 2006, 97(5): 411-9; Watanabe T et al., Cancer Sci 2005, 96(8): 498-506).\nas §3"}, "[3]": {"system": "COS7 cells transfected with both KOC1 and HLA-A*3303", "assay": "Specific CTL activity against target cells expressing KOC1 and HLA-A*3303", "assay_type": "cell-based, African green monkey", "settings": "for specific CTL activity of CTL clones against target cells expressing KOC1 and HLA-A*3303: COS7 transfected with both full-length KOC1 and HLA-A*3303; for specific CTL activity of CTL clones against control cells: COS7 transfected with either full-length KOC1 or HLA-A*3303", "procedure": "as §3\nA cDNA encoding the open-reading frame of a target gene or HLA-A*3303 was amplified by PCR. The PCR-amplified product was cloned into an expression vector. Either or both of the target gene-expressing vector and the HLA-A*3303-expressing vector were transfected into […], which is a cell line negative for the target gene and HLA, using Lipofectamine 2000 (Invitrogen) following the manufacturer's recommended protocol. Two days after transfection, the transfected cells were harvested using versene (Invitrogen), and used as the target cell for CTL activity assay (5×10^4 cells/well).\nThe CTL lines and CTL clones established against KOC1-A33-9-485 (SEQ ID NO: 64) (a), KOC1-A33-9-286 (SEQ ID NO: 67) (b), and KOC1-A33-10-542 (SEQ ID NO: 77) (c) were investigated for their ability to recognize target cells expressing KOC1 and the HLA-A*3303 molecule. COS7 cells transfected with both full-length KOC1 and the HLA-A*3303 gene (a specific model of target cells expressing KOC1 and the HLA-A*3303 gene) were prepared as the target cell. COS7 cells transfected with either full-length KOC1 or HLA-A*3303 were prepared as the control."}, "[4]": {"system": "peptide-pulsed C1R-A11", "assay": "In vitro CTL induction, IFN-gamma ELISPOT assay (HLA-A*1101)", "assay_type": "cell-based, human", "settings": "CTLs induced with peptide-pulsed DCs from HLA-A*1101-positive volunteers; day 21; vs peptide-pulsed C1R-A11, compared with unpulsed control; listed as KOC1-A11-9-258", "procedure": "as §1, with “(C1R-A11)” for “(C1R-A33)”, “HLA-A*1101” for “HLA-A*3303”\nas §2, with “volunteers (HLA-A*1101-positive)” for “volunteers (HLA-A*3303-positive)”, “were inactivated,” for “were inactivated”, “peptide-pulsed C1R-A11” for “peptide-pulsed C1R-A33 cell”, “Y et” for “Y et.”\nSpecifically, peptide-pulsed C1R-A11 (1×10^4 cells/well) was prepared as the stimulator cell. The induced CTLs, i.e., CTL lines and CTL clones, were used as the responder cell. The IFN-gamma ELISPOT assay and IFN-gamma ELISA were performed according to the manufacturer's manual."}}, "note": "“Also recorded” adds a separate entry of the source."}
{"sequence": "EVKLEAHIR (a peptide derived from KOC1) [SEQ ID NO: 64]", "values": [{"measurement": "peptide-specific CTL activity (IFN-gamma production), ELISPOT", "setting": "[1]", "result": "potent IFN-gamma production"}, {"measurement": "IFN-gamma production of CTL clones, ELISA", "setting": "[2]; listed as KOC1-A33-9-485", "result": "Potent IFN-gamma production"}, {"measurement": "IFN-gamma production of CTL lines, ELISA", "setting": "[2]", "result": "potent IFN-gamma production"}, {"measurement": "specific CTL activity of CTL clones against target cells expressing KOC1 and HLA-A*3303", "setting": "[3]; listed as KOC1-A33-9-485", "result": "specific CTL activity; also recorded: potent CTL activities"}, {"measurement": "specific CTL activity of CTL clones against control cells", "setting": "[3]; listed as KOC1-A33-9-485", "result": "a significant specific CTL activity was not shown; also recorded: a significant specific CTL activity was not detected"}]}
{"sequence": "HFYACQVAQR (a peptide derived from KOC1) [SEQ ID NO: 77]", "values": [{"measurement": "peptide-specific CTL activity (IFN-gamma production), ELISPOT", "setting": "[1]", "result": "potent IFN-gamma production"}, {"measurement": "IFN-gamma production of CTL clones, ELISA", "setting": "[2]; listed as KOC1-A33-10-542", "result": "Potent IFN-gamma production"}, {"measurement": "IFN-gamma production of CTL lines, ELISA", "setting": "[2]", "result": "potent IFN-gamma production"}, {"measurement": "specific CTL activity of CTL clones against target cells expressing KOC1 and HLA-A*3303", "setting": "[3]; listed as KOC1-A33-10-542", "result": "specific CTL activity; also recorded: potent CTL activities"}, {"measurement": "specific CTL activity of CTL clones against control cells", "setting": "[3]; listed as KOC1-A33-10-542", "result": "a significant specific CTL activity was not shown; also recorded: a significant specific CTL activity was not detected"}]}
{"sequence": "KSILEIMHK (a peptide derived from KOC1) [SEQ ID NO: 1]", "values": [{"measurement": "peptide-specific CTL activity (IFN-gamma production), ELISPOT", "setting": "[4]", "result": "no specific IFN-gamma production; also recorded: specific IFN-gamma production was not observed"}]}
{"sequence": "NFVGRLIGK (a peptide derived from KOC1) [SEQ ID NO: 67]", "values": [{"measurement": "peptide-specific CTL activity (IFN-gamma production), ELISPOT", "setting": "[1]", "result": "potent IFN-gamma production"}, {"measurement": "IFN-gamma production of CTL clones, ELISA", "setting": "[2]; listed as KOC1-A33-9-286", "result": "Potent IFN-gamma production"}, {"measurement": "IFN-gamma production of CTL lines, ELISA", "setting": "[2]", "result": "potent IFN-gamma production"}, {"measurement": "specific CTL activity of CTL clones against target cells expressing KOC1 and HLA-A*3303", "setting": "[3]; listed as KOC1-A33-9-286", "result": "specific CTL activity; also recorded: potent CTL activities"}, {"measurement": "specific CTL activity of CTL clones against control cells", "setting": "[3]; listed as KOC1-A33-9-286", "result": "a significant specific CTL activity was not shown; also recorded: a significant specific CTL activity was not detected"}]}
